ChEMBL document CHEMBL4368923 (J Med Chem, 2019)
Values after ≈ are worked out from the molar mass of the structure shown.

Experiments:
[1] = system: Human immunodeficiency virus 1; assay: Antiviral activity against HIV1 harboring reverse transcriptase K103N mutant infected in human MT4 cells assessed as inhibition of virus-induced cytotoxicity after 5 days by MTT assay; assay type: functional, organism-based; details: Human immunodeficiency virus 1, MT4, 120 h
[2] = system: Human immunodeficiency virus 1; assay: Antiviral activity against HIV1 harboring reverse transcriptase L100I mutant infected in human MT4 cells assessed as inhibition of virus-induced cytotoxicity after 5 days by MTT assay; assay type: functional, organism-based; details: Human immunodeficiency virus 1, MT4, 120 h
[3] = system: Human immunodeficiency virus 1; assay: Antiviral activity against HIV1 harboring reverse transcriptase E138K mutant infected in human MT4 cells assessed as inhibition of virus-induced cytotoxicity after 5 days by MTT assay; assay type: functional, organism-based; details: Human immunodeficiency virus 1, MT4, 120 h
[4] = system: Human immunodeficiency virus 1; assay: Antiviral activity against HIV1 harboring reverse transcriptase F227L/V106A double mutant infected in human MT4 cells assessed as inhibition of virus-induced cytotoxicity after 5 days by MTT assay; assay type: functional, organism-based; details: Human immunodeficiency virus 1, MT4, 120 h
[5] = Selectivity index, ratio of CC50 for human MT4 cells to EC50 for HIV1 RES056 harboring reverse transcriptase K103N/Y181C double mutant infected in human MT4 cells
[6] = system: Human immunodeficiency virus 1; assay: Antiviral activity against HIV1 harboring reverse transcriptase Y181C mutant infected in human MT4 cells assessed as inhibition of virus-induced cytotoxicity after 5 days by MTT assay; assay type: functional, organism-based; details: Human immunodeficiency virus 1, MT4, 120 h
[7] = system: Human immunodeficiency virus 1; assay: Antiviral activity against HIV1 harboring reverse transcriptase Y188L mutant infected in human MT4 cells assessed as inhibition of virus-induced cytotoxicity after 5 days by MTT assay; assay type: functional, organism-based; details: Human immunodeficiency virus 1, MT4, 120 h
[8] = Selectivity index, ratio of CC50 for human MT4 cells to EC50 for HIV1 3B infected in human MT4 cells
[9] = system: Human immunodeficiency virus 1; assay: Antiviral activity against HIV1 RES056 harboring reverse transcriptase K103N/Y181C double mutant infected in human MT4 cells assessed as inhibition of virus-induced cytotoxicity after 5 days by MTT assay; assay type: functional, organism-based; details: Human immunodeficiency virus 1, RES056, MT4, 120 h
[10] = Cytotoxicity against human MT4 cells assessed as reduction in cell viability after 5 days by MTT assay; assay type: cell-based
[11] = system: Human immunodeficiency virus 1; assay: Antiviral activity against HIV1 3B infected in human MT4 cells assessed as inhibition of virus-induced cytotoxicity after 5 days by MTT assay; assay type: functional, organism-based; details: Human immunodeficiency virus 1, 3B, MT4, 120 h
[12] = target: Human immunodeficiency virus type 1 reverse transcriptase (Human immunodeficiency virus 1, UniProt Q72547); assay: Inhibition of HIV1 reverse transcriptase p66/p51 using poly(rA)/oligo(dT)16 as template/primer measured after 40 mins by pico-green based spectrofluorometric analysis
[13] = Solubility of the compound in deionized water at pH 7
[14] = Solubility in water at pH 7; assay type: physicochemical
[15] = Subacute toxicity in Kunming mouse assessed as clonic convulsion at 50 mg/kg, po dosed once every other day for 14 days; assay type: organism-based; details: in vivo, 336 h
[16] = Subacute toxicity in Kunming mouse assessed as pathological damage to liver at 50 mg/kg, po dosed once every other day for 14 days by hematoxylin and eosin staining based assay; assay type: organism-based; details: in vivo, 336 h
[17] = Subacute toxicity in Kunming mouse assessed as ruffled fur at 50 mg/kg, po dosed once every other day for 14 days; assay type: organism-based; details: in vivo, 336 h
[18] = Acute toxicity in Kunming mouse assessed as clonic convulsion at 2000 mg/kg, ig measured every day for 1 week; assay type: organism-based; details: in vivo, po, 168 h
[19] = Subacute toxicity in Kunming mouse assessed as pathological damage to kidneys at 50 mg/kg, po dosed once every other day for 14 days by hematoxylin and eosin staining based assay; assay type: organism-based; details: in vivo, 336 h
[20] = Acute toxicity in Kunming mouse assessed as ruffled fur at 2000 mg/kg, ig measured every day for 1 week; assay type: organism-based; details: in vivo, po, 168 h
[21] = Subacute toxicity in Kunming mouse assessed as effect on body weight at 50 mg/kg, po dosed once every other day for 14 days; assay type: organism-based; details: in vivo, 336 h
[22] = Acute toxicity in Kunming mouse assessed as mortality at 2000 mg/kg, ig measured every day for 1 week; assay type: organism-based; details: in vivo, po, 168 h
[23] = Acute toxicity in Kunming mouse assessed as effect on body weight at 2000 mg/kg, ig measured every day for 1 week; assay type: organism-based; details: in vivo, po, 168 h
[24] = Subacute toxicity in Kunming mouse assessed as pathological damage to lungs at 50 mg/kg, po dosed once every other day for 14 days by hematoxylin and eosin staining based assay; assay type: organism-based; details: in vivo, 336 h
[25] = Subacute toxicity in Kunming mouse assessed as lethargy at 50 mg/kg, po dosed once every other day for 14 days; assay type: organism-based; details: in vivo, 336 h
[26] = Subacute toxicity in Kunming mouse assessed as anorexia at 50 mg/kg, po dosed once every other day for 14 days; assay type: organism-based; details: in vivo, 336 h
[27] = Acute toxicity in Kunming mouse assessed as effect on animal growth at 2000 mg/kg, ig measured every day for 1 week; assay type: organism-based; details: in vivo, po, 168 h
[28] = Subacute toxicity in Kunming mouse assessed as pathological damage to heart at 50 mg/kg, po dosed once every other day for 14 days by hematoxylin and eosin staining based assay; assay type: organism-based; details: in vivo, 336 h
[29] = Subacute toxicity in Kunming mouse assessed as pathological damage to spleen at 50 mg/kg, po dosed once every other day for 14 days by hematoxylin and eosin staining based assay; assay type: organism-based; details: in vivo, 336 h
[30] = Subacute toxicity in Kunming mouse assessed as mortality at 50 mg/kg, po dosed once every other day for 14 days; assay type: organism-based; details: in vivo, 336 h
[31] = Acute toxicity in Kunming mouse assessed as anorexia at 2000 mg/kg, ig measured every day for 1 week; assay type: organism-based; details: in vivo, po, 168 h
[32] = Acute toxicity in Kunming mouse assessed as lethargy at 2000 mg/kg, ig measured every day for 1 week; assay type: organism-based; details: in vivo, po, 168 h

SMILES | EC50 [1] [nM] | EC50 [2] [nM] | EC50 [3] [nM] | EC50 [4] [nM] | EC50 [6] [nM] | EC50 [7] [nM] | EC50 [9] [nM] | CC50 at 120 h [10] [nM] | EC50 ([11]; read-out: EC50) [nM] | EC50 ([11]; read-out: pEC50 (converted)) [nM] | selectivity ratio ([5]; MT4 cells) | IC50 [12] [nM] | selectivity ratio ([8]; MT4 cells) | further results
Cc1cn([C@H]2C[C@H](N=[N+]=[N-])[C@@H](CO)O2)c(=O)[nH]c1=O [ZIDOVUDINE] | 11 | 3.6 | 14 | 6.2 | 5.6 | 5.1 | 15 | > 7480 |  |  |  |  |  | selectivity ratio [5]: > 515; selectivity ratio [8]: > 704
Cc1cc(C#N)cc(C)c1Oc1ccnc(Nc2ccc(CNC3CCN(C(=O)OC(C)(C)C)CC3)cc2)n1 |  |  |  |  |  |  | > 3510 | 3510 | 190 | 191 | < 1 | 277 | 19 | 
Cc1ccnc2c1NC(=O)c1cccnc1N2C1CC1 [NEVIRAPINE] | 10900 | 1640 |  | > 15000 | > 15000 | > 15000 | > 15000 | > 15000 | 240 | 240 |  |  |  | 
Cc1cc(C#N)cc(C)c1Oc1ccnc(Nc2ccc(CN3CCC(NS(N)(=O)=O)CC3)cc2)n1 | 500 | 2150 | 450 | ≥ 6820 | 6540 | > 6970 | > 3720 | 3720 | 92 | 91.2 | < 1 | 152 | 40 | 
Cc1cc(C#N)cc(C)c1Oc1nc(Nc2ccc(C#N)cc2)nc(N)c1Br [ETRAVIRINE] | 3.9 | 7.4 |  | 26 | 21 | 27 | 50 | > 4590 | 3.5 | 3.47 |  |  |  | solubility [13]: < 1 µg/mL; solubility [14]: < 1 µg/mL
Cc1cc(/C=C/C#N)cc(C)c1Oc1ccnc(Nc2ccc(CN3CCN(S(C)(=O)=O)CC3)cc2)n1 | 3.6 | 10 | 7.5 | 110 | 25 | 1620 | 790 | ≥ 173000 | 3.5 | 3.47 |  | 67 |  | Activity [15]: Non-Toxic; Activity [16]: Non-Toxic; Activity [17]: Non-Toxic; Activity [18]: Non-Toxic; Activity [19]: Non-Toxic; Activity [20]: Non-Toxic; Activity [21]: Non-Toxic; Activity [22]: Non-Toxic; Activity [23]: Non-Toxic; Activity [24]: Non-Toxic; Activity [25]: Non-Toxic; Activity [26]: Non-Toxic; Activity [27]: Non-Toxic; Activity [28]: Non-Toxic; Activity [29]: Non-Toxic; Activity [30]: Non-Toxic; Activity [31]: Non-Toxic; Activity [32]: Non-Toxic
Nc1ccn([C@@H]2CS[C@H](CO)O2)c(=O)n1 [LAMIVUDINE] |  |  |  |  |  |  |  | > 87200 | 6410 |  |  |  | > 14 | 
Cc1cc(C#N)cc(C)c1Oc1ccnc(Nc2ccc(CN3CCC(NS(C)(=O)=O)CC3)cc2)n1 | 460 | 700 | 380 | 3230 | 2600 | ≥ 7800 | > 18100 | 18100 | 55 | 55 | < 1 | 79 | 331 | 
Cc1cc(C#N)cc(C)c1Oc1ccnc(Nc2ccc(CN3CCN(S(C)(=O)=O)CC3)cc2)n1 | 230 | 110 | 89 | 1030 | 470 | > 5220 | > 3430 | 3430 | 7.2 | 7.24 | < 1 | 49 | 475 | 
Cc1cc(C#N)cc(C)c1Oc1ccnc(Nc2ccc(CN3CCOCC3)cc2)n1 | 68 | 410 | 140 | 1800 | 910 | 4930 | > 23000 | 23000 | 11 | 11 | < 1 | 42 | 2040 | solubility [13]: 33.4 µg/mL (≈ 80.4 µM)
Cc1cc(/C=C/C#N)cc(C)c1Oc1ccnc(Nc2ccc(CN3CCN(C(=O)OC(C)(C)C)CC3)cc2)n1 | 20 | 200 | 130 | 150 | 420 | > 4030 | > 3040 | 3040 | 15 | 15.1 | < 1 | 297 | 209 | 
Cc1cc(/C=C/C#N)cc(C)c1Oc1ccnc(Nc2ccc(CN3CCC(NS(C)(=O)=O)CC3)cc2)n1 | 25 | 130 | 36 | 470 | 330 | 8350 | > 6990 | 6990 | 6.9 | 6.92 | < 1 | 76 | 1020 | 
Cc1cc(C)c(Oc2nc(N)nc(Nc3ccc(CN4CCOCC4)cc3)n2)c(C)c1 |  |  |  |  |  |  | > 12900 | ≥ 12900 | 120 | 120 | 1 | 442 | ≥ 105 | 
Cc1cc(/C=C/C#N)cc(C)c1Oc1ccnc(Nc2ccc(CN3CCC(NC(=O)OC(C)(C)C)CC3)cc2)n1 | 68 | 280 | 150 | ≥ 1140 | 570 | > 4270 | > 3550 | 3550 | 26 | 25.7 | < 1 | 499 | 138 | 
O=C1Nc2ccc(Cl)cc2[C@@](C#CC2CC2)(C(F)(F)F)O1 [EFAVIRENZ] | 89 | 52 | 6 | 270 |  | 240 | 240 | > 6340 |  |  |  |  |  | 
Cc1cc(C#N)cc(C)c1Oc1ccnc(Nc2ccc(CN3CCC(NC(=O)OC(C)(C)C)CC3)cc2)n1 |  |  |  |  |  |  | > 4340 | 4340 | 200 | 200 | < 1 | 413 | 21 | 
Cc1cc(/C=C/C#N)cc(C)c1Nc1ccnc(Nc2ccc(C#N)cc2)n1 [RILPIVIRINE] |  |  |  |  |  |  |  | 4380 | 1.3 | 1.29 |  |  |  | 
Cc1cc(C#N)cc(C)c1Oc1cc(Cl)nc(Nc2ccc(CN3CCOCC3)cc2)c1 |  |  |  |  |  |  | > 6900 |  | 930 |  | < 1 |  | 7 | 
